{
  "source": "ChEMBL document CHEMBL4000244",
  "about": "“Probing A-form DNA: A fluorescent aminosugar probe and dual recognition by anthraquinone-neomycin conjugates” (Bioorg Med Chem, 2017)",
  "key": {"[1]": {"experiment": "Binding affinity to 5'-CGCCGCGC-3' DNA hairpin assessed as change in fluorescence intensity at 1 uM after 45 mins by fluorescence quenching analysis relative to control"}, "[2]": {"experiment": "Binding affinity to 5'-CGGCCCGG-3' DNA hairpin assessed as change in fluorescence intensity at 1 uM after 45 mins by fluorescence quenching analysis relative to control"}, "[3]": {"experiment": "Binding affinity to 5'-CCCGCCGG-3' DNA hairpin assessed as change in fluorescence intensity at 1 uM after 45 mins by fluorescence quenching analysis relative to control"}, "[4]": {"experiment": "Binding affinity to 5'-GCCCCCGC-3' DNA hairpin assessed as change in fluorescence intensity at 1 uM after 45 mins by fluorescence quenching analysis relative to control"}, "[5]": {"experiment": "Binding affinity to 5'-GGGGCGCC-3' DNA hairpin assessed as change in fluorescence intensity at 1 uM after 45 mins by fluorescence quenching analysis relative to control"}, "[6]": {"experiment": "Binding affinity to 5'-GGCCGCGG-3' DNA hairpin assessed as change in fluorescence intensity at 1 uM after 45 mins by fluorescence quenching analysis relative to control"}, "[7]": {"experiment": "Binding affinity to 5'-CGCGGCCC-3' DNA hairpin assessed as change in fluorescence intensity at 1 uM after 45 mins by fluorescence quenching analysis relative to control"}, "[8]": {"experiment": "Binding affinity to 5'-CGGCCCCG-3' DNA hairpin assessed as change in fluorescence intensity at 1 uM after 45 mins by fluorescence quenching analysis relative to control"}, "[9]": {"experiment": "Binding affinity to 5'-GGGGGCGG-3' DNA hairpin assessed as change in fluorescence intensity at 1 uM after 45 mins by fluorescence quenching analysis relative to control"}, "[10]": {"experiment": "Binding affinity to 5'-CGCGCGCC-3' DNA hairpin assessed as change in fluorescence intensity at 1 uM after 45 mins by fluorescence quenching analysis relative to control"}, "[11]": {"experiment": "Binding affinity to 5'-GGGGGCCG-3' DNA hairpin assessed as change in fluorescence intensity at 1 uM after 45 mins by fluorescence quenching analysis relative to control"}, "[12]": {"experiment": "Binding affinity to 5'-CGCCCCGG-3' DNA hairpin assessed as change in fluorescence intensity at 1 uM after 45 mins by fluorescence quenching analysis relative to control"}, "[13]": {"experiment": "Binding affinity to 5'-GGCCCGCC-3' DNA hairpin assessed as change in fluorescence intensity at 1 uM after 45 mins by fluorescence quenching analysis relative to control"}, "[14]": {"experiment": "Binding affinity to 5'-GCGGGCCG-3' DNA hairpin assessed as change in fluorescence intensity at 1 uM after 45 mins by fluorescence quenching analysis relative to control"}, "[15]": {"experiment": "Binding affinity to 5'-GGCGGCCC-3' DNA hairpin assessed as change in fluorescence intensity at 1 uM after 45 mins by fluorescence quenching analysis relative to control"}, "[16]": {"experiment": "Binding affinity to 5'-GCCGCGGG-3' DNA hairpin assessed as change in fluorescence intensity at 1 uM after 45 mins by fluorescence quenching analysis relative to control"}, "[17]": {"experiment": "Binding affinity to 5'-GCGGGCCC-3' DNA hairpin assessed as change in fluorescence intensity at 1 uM after 45 mins by fluorescence quenching analysis relative to control"}, "[18]": {"experiment": "Binding affinity to 5'-GCGCCGGG-3' DNA hairpin assessed as change in fluorescence intensity at 1 uM after 45 mins by fluorescence quenching analysis relative to control"}, "[19]": {"experiment": "Binding affinity to 5'-CGGGGCCG-3' DNA hairpin assessed as change in fluorescence intensity at 1 uM after 45 mins by fluorescence quenching analysis relative to control"}, "[20]": {"experiment": "Binding affinity to 5'-GCGCGCCG-3' DNA hairpin assessed as change in fluorescence intensity at 1 uM after 45 mins by fluorescence quenching analysis relative to control"}, "[21]": {"experiment": "Binding affinity to 5'-CCGCGCGG-3' DNA hairpin assessed as change in fluorescence intensity at 1 uM after 45 mins by fluorescence quenching analysis relative to control"}, "[22]": {"experiment": "Binding affinity to 5'-CCGCCGCG-3' DNA hairpin assessed as change in fluorescence intensity at 1 uM after 45 mins by fluorescence quenching analysis relative to control"}, "[23]": {"experiment": "Binding affinity to 5'-GCGGCCGG-3' DNA hairpin assessed as change in fluorescence intensity at 1 uM after 45 mins by fluorescence quenching analysis relative to control"}, "[24]": {"experiment": "Binding affinity to 5'-GGGCGGCG-3' DNA hairpin assessed as change in fluorescence intensity at 1 uM after 45 mins by fluorescence quenching analysis relative to control"}, "[25]": {"experiment": "Binding affinity to 5'-CCCCCGGC-3' DNA hairpin assessed as change in fluorescence intensity at 1 uM after 45 mins by fluorescence quenching analysis relative to control"}, "[26]": {"experiment": "Binding affinity to 5'-GCCGGGCC-3' DNA hairpin assessed as change in fluorescence intensity at 1 uM after 45 mins by fluorescence quenching analysis relative to control"}, "[27]": {"experiment": "Binding affinity to 5'-GCGGGCGC-3' DNA hairpin assessed as change in fluorescence intensity at 1 uM after 45 mins by fluorescence quenching analysis relative to control"}, "[28]": {"experiment": "Binding affinity to 5'-GCCCGGCG-3' DNA hairpin assessed as change in fluorescence intensity at 1 uM after 45 mins by fluorescence quenching analysis relative to control"}, "[29]": {"experiment": "Binding affinity to 5'-GGGCGCCC-3' DNA hairpin assessed as change in fluorescence intensity at 1 uM after 45 mins by fluorescence quenching analysis relative to control"}, "[30]": {"experiment": "Binding affinity to 5'-GGGGCCGC-3' DNA hairpin assessed as change in fluorescence intensity at 1 uM after 45 mins by fluorescence quenching analysis relative to control"}, "[31]": {"experiment": "Binding affinity to 5'-GGGCCCCG-3' DNA hairpin assessed as change in fluorescence intensity at 1 uM after 45 mins by fluorescence quenching analysis relative to control"}, "[32]": {"experiment": "Binding affinity to 5'-GCGGCGGG-3' DNA hairpin assessed as change in fluorescence intensity at 1 uM after 45 mins by fluorescence quenching analysis relative to control"}, "[33]": {"experiment": "Binding affinity to 5'-GCGGGGGC-3' DNA hairpin assessed as change in fluorescence intensity at 1 uM after 45 mins by fluorescence quenching analysis relative to control"}, "[34]": {"experiment": "Binding affinity to 5'-GCCGGCCC-3' DNA hairpin assessed as change in fluorescence intensity at 1 uM after 45 mins by fluorescence quenching analysis relative to control"}, "[35]": {"experiment": "Binding affinity to 5'-GCCCGGCC-3' DNA hairpin assessed as change in fluorescence intensity at 1 uM after 45 mins by fluorescence quenching analysis relative to control"}, "[36]": {"experiment": "Binding affinity to 5'-GCGGCCCC-3' DNA hairpin assessed as change in fluorescence intensity at 1 uM after 45 mins by fluorescence quenching analysis relative to control"}},
  "data": [
    {"compound": "NCC1O[C@H](O[C@H]2[C@@H](O)[C@H](O[C@@H]3[C@@H](O)[C@H](N)C[C@H](N)[C@H]3O[C@H]3O[C@H](CN)[C@@H](O)[C@H](O)[C@H]3N)O[C@@H]2CSCCNC(=O)CCSCC(=O)Nc2ccc(-c3c4ccc(=O)cc-4oc4cc(O)ccc34)c(C(=O)O)c2)[C@H](N)[C@@H](O)[C@@H]1O", "note": "(stereo partly specified)", "values": [
      {"measurement": "Activity", "setting": "[1]", "result": 46.6, "unit": "%"},
      {"measurement": "Activity", "setting": "[2]", "result": 54.4, "unit": "%"},
      {"measurement": "Activity", "setting": "[3]", "result": 50.9, "unit": "%"},
      {"measurement": "Activity", "setting": "[4]", "result": 23.6, "unit": "%"},
      {"measurement": "Activity", "setting": "[5]", "result": 51.4, "unit": "%"},
      {"measurement": "Activity", "setting": "[6]", "result": 49.8, "unit": "%"},
      {"measurement": "Activity", "setting": "[7]", "result": 44.6, "unit": "%"},
      {"measurement": "Activity", "setting": "[8]", "result": 33.2, "unit": "%"},
      {"measurement": "Activity", "setting": "[9]", "result": 38.3, "unit": "%"},
      {"measurement": "Activity", "setting": "[10]", "result": 52.2, "unit": "%"},
      {"measurement": "Activity", "setting": "[11]", "result": 29.9, "unit": "%"},
      {"measurement": "Activity", "setting": "[12]", "result": 41.9, "unit": "%"},
      {"measurement": "Activity", "setting": "[13]", "result": 31.2, "unit": "%"},
      {"measurement": "Activity", "setting": "[14]", "result": 40.9, "unit": "%"},
      {"measurement": "Activity", "setting": "[15]", "result": 41.2, "unit": "%"},
      {"measurement": "Activity", "setting": "[16]", "result": 52.7, "unit": "%"},
      {"measurement": "Activity", "setting": "[17]", "result": 47.8, "unit": "%"},
      {"measurement": "Activity", "setting": "[18]", "result": 46.9, "unit": "%"},
      {"measurement": "Activity", "setting": "[19]", "result": 41.1, "unit": "%"},
      {"measurement": "Activity", "setting": "[20]", "result": 44.2, "unit": "%"},
      {"measurement": "Activity", "setting": "[21]", "result": 47.2, "unit": "%"},
      {"measurement": "Activity", "setting": "[22]", "result": 44, "unit": "%"},
      {"measurement": "Activity", "setting": "[23]", "result": 40.9, "unit": "%"},
      {"measurement": "Activity", "setting": "[24]", "result": 52.7, "unit": "%"},
      {"measurement": "Activity", "setting": "[25]", "result": 33.7, "unit": "%"},
      {"measurement": "Activity", "setting": "[26]", "result": 51, "unit": "%"},
      {"measurement": "Activity", "setting": "[27]", "result": 53.7, "unit": "%"},
      {"measurement": "Activity", "setting": "[28]", "result": 51.9, "unit": "%"},
      {"measurement": "Activity", "setting": "[29]", "result": 65.9, "unit": "%"},
      {"measurement": "Activity", "setting": "[30]", "result": 41.3, "unit": "%"},
      {"measurement": "Activity", "setting": "[31]", "result": 18.1, "unit": "%"},
      {"measurement": "Activity", "setting": "[32]", "result": 43.5, "unit": "%"},
      {"measurement": "Activity", "setting": "[33]", "result": 36.9, "unit": "%"},
      {"measurement": "Activity", "setting": "[34]", "result": 37.6, "unit": "%"},
      {"measurement": "Activity", "setting": "[35]", "result": 36.2, "unit": "%"},
      {"measurement": "Activity", "setting": "[36]", "result": 37.2, "unit": "%"}
    ]}
  ]
}
